This is an account of results in patent EP3720857B1, “2-OXO-5H-CHROMENO[4,3-B]PYRIDINES FOR USE IN THE TREATMENT OF HEPATITIS B” (Galapagos NV, priority 2017, dated 2019).

SMILES strings stand for the structures.

The test system of assay [1] is hepatitis virus B (HBV) infection. Nature of the assay: iCell hepatocytes assay, delayed assay (compounds added three days after HBV infection). Particulars: for EC50: Hepatitis B virus, Hepatocyte, HBs ELISA. The format is cell-based. The method, then:
The principle of the iCell hepatocyte 2.0 96 well assay is to evaluate the inhibitory effect of a test compound on hepatitis virus B (HBV) infection. In this assays the HBV core antigen (HBcAg) and/or extracellular antigen (HBeAg) and/or surface antigen (HBsAg) are used as a marker for HBV infection. Nuclei count may be used as an indication for compound toxicity.
In the standard assay set-up HBV infection and compound addition are performed on the same day, in the delayed assay the compounds are added three days after HBV infection. iCell hepatocytes 2.0 are human hepatocytes derived from induced pluripotent stem cells (iPSc) purchased from Cellular Dynamics international (CDI, R1027).
At day 0, iCell hepatocytes 2.0 (CDI, R1027) are thawed and seeded in collagen I coated 96well plates at 112 000c/well (100µL) in plating medium (RPMI supplemented with B27 supplement, 20 ng/mL recombinant human oncostatin M (OSM), 25µg/mL gentamicin, 0.1µM Dexamethasone and iCell medium supplement provided by CDI). Plates are incubated at 37°C, 5% CO2 and daily refreshed with plating medium for the following four days.
On day 5 and 6, plates are refreshed with 100µL maintenance medium (RPMI supplemented with B27 supplement, 25µg/mL gentamicin, 0.1µM Dexamethasone, and iCell medium supplement provided by CDI) and incubated at 37°C, 5% CO2 until the following day.
On day 7 (day of infection), the maintenance medium is removed from the assay plates and cells are infected with 50 µL of HBV mix (HBV virus, 4% PEG, 0% or 2% DMSO in maintenance medium). The assay plates were incubated overnight at 37°C, 5% CO2.
At day 1 post infection (day8), 50µL of HBV mix is removed from the assay plates and refreshed with 100 µL of maintenance medium. The assay plates are incubated at 37°C, 5% CO2 for three days.
At day 4 post infection (day 11) and day 7 post infection (day14), the supernatant is removed and 100 µL of compound series diluted 1/500 in maintenance medium is added to the assay plates (8 point serial dilution using 1/3 dilution steps in 100% DMSO or 8 point serial dilution using ¼ dilution steps, normalized for 0.2% DMSO. The assay plates were incubated at 37°C, 5% CO2 for three days.
At day 10 post infection (day 17), 100µL of supernatant is harvested and frozen to -20°C. The cells are fixed with 50 µL of 3.7% formaldehyde and incubated for 30 min at room temperature. After fixation, cells are washed four times with phosphate buffer saline (PBS) with the plate washer (Select 405, microplate washer, Biotek) and subjected to HBc staining. harvested supernatant is used for HBe and/or HBs ELISA.
The assay plates are blocked with blocking buffer (2% FBS, 3% BSA, 0.2% TritonX100 in PBS) for 1 h at room temperature.
After blocking, the assay plates are tapped manually and incubated with 50 µL diluted primary antibody (1/700 Rabbit-anti-HBc Ag, Dako, B0586 or 1/350 Rabbit-anti-HBc Ag, Invitrogen, PA516368) in blocking buffer and incubated for 90 min at room temperature.
After 4 washes of PBST (1XPBS + 0.05% Tween) with the plate washer, the assay plates are incubated with 100 µL of secondary antibody (Donkey-anti-rabbit Alexa 488, Lifetechnologies, A21206) 1/500 diluted in blocking buffer and incubated for 60 min at room temperature in the dark, then washed 4 times with PBST on the plate washer and incubated with 100µL of DAPI (Sigma D9542, stock 5mg/mL) 1/10000 diluted in PBS for 15-30 min at room temperature in the dark.
Finally, the assay plates are read out on a InCell Analyzer 2200 (GE Healthcare). […]
After blocking, 30 µL of sample and HBe Ag standard (recombinant hepatitis B virus E antigen protein, 4mg/mL, Abcam, ab91273) are added to the plate. The HBe Ag standard is 1/3 diluted in blocking buffer starting from 1.25µg/mL. A vehicle control is also included. The plate is incubated for 30 min at room temperature.
After sample incubation, the plates are washed 4 times with PBST on a platewasher followed by 2 washed of PBS. […]

For assay [2] the test system is unchanged. Nature of the assay: HepG2 NTCP assay (HBcAg staining as marker of HBV infection). Type of assay: cell-based. Particulars: HepG2-NTCP cells infected with HBV, HBV core antigen (HBcAg) as marker of infection. In short, it runs like this:
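HepG2-NTCP cells were infected with HBV (4% PEG, 1% DMSO) in the presence of compound overnight, then re-dosed and incubated 5 days at 37 °C. HBcAg immunofluorescence was imaged, with DAPI nuclei count taken as toxicity. Ten-point 1/3 dilutions gave % inhibition against 0.2% DMSO vehicle and 100 nM Myrcludex B, with dose-response curves fitted.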

Regarding `COCCCOc1cc2c(cc1Cl)-c1c(cc(C(=O)O)c(=O)n1C1CC1)C(C1(C)COC1)O2` (stereo not drawn) [Compound 2, 9-chloro-1-cyclopropyl-8-(3-methoxypropoxy)-5-(3-methyloxetan-3-yl)-2-oxo-5H-chromeno[4,3-b]pyridine-3-carboxylic acid], in assay [1], the “Delayed assay HBs ELISA % inhibition” value was “++ (50-75%)” and the EC50 (in general, the concentration giving half of the maximal effect) was in the range of 0.001 to 20 nM. In assay [2], the IC50 (usually the concentration needed to halve the response being measured) lay in the range of 0.001 to 1 nM.

Take `COc1cc2c(cc1OC)-c1c(cc(C(=O)O)c(=O)n1C1CC1)C(C(C)C)O2` (stereo not drawn) [Compound 3, 1-cyclopropyl-5-isopropyl-8,9-dimethoxy-2-oxo-5H-chromeno[4,3-b]pyridine-3-carboxylic acid]: in assay [1], the “Delayed assay HBs ELISA % inhibition” value is given as “+++ (75-100%)” and the EC50 is more than 50 nM. In addition, the half-maximal inhibitory concentration (IC50) in assay [2] lay in the range of 1 to 20 nM.

Turning to `COCCCOc1cc2c(cc1Cl)-c1c(cc(C(=O)O)c(=O)n1C1CC1)C(C(C)C)O2` (stereo not drawn) [Compound 4, 9-chloro-1-cyclopropyl-5-isopropyl-8-(3-methoxypropoxy) -2-oxo-5H-chromeno[4,3-b]pyridine-3-carboxylic acid], in assay [1], the “Delayed assay HBs ELISA % inhibition” value is given as “++ (50-75%)” and the 50% effective concentration (EC50) is 0.001 to 20 nM. Further, in assay [2], the half-inhibitory concentration (IC50) lay within 0.001 to 1 nM.

As for `COCCCOc1cc2c(cc1Cl)-c1c(cc(C(=O)O)c(=O)n1C1CCC1)C(C(C)C)O2` (stereo not drawn) [Compound 17, 9-chloro-1-cyclobutyl-5-isopropyl-8-(3-methoxypropoxy) -2-oxo-5H-chromeno[4,3-b]pyridine-3-carboxylic acid], in assay [1], the “Delayed assay HBs ELISA % inhibition” value is “+++ (75-100%)” and the half-maximal effective concentration (EC50) was in the range of 0.001 to 20 nM. In assay [2], this molecule returned an IC50 of 0.001 to 1 nM.

With `COCCCOc1cc2c(cc1Cl)-c1c(cc(C(=O)O)c(=O)n1C1CC1)[C@@H](C1(C)COC1)O2` [Compound 47, (5S)-9-chloro-1-cyclopropyl-8-(3-methoxypropoxy)-5-(3-methyloxetan-3-yl)-2-oxo-5H-chromeno[4,3-b]pyridine-3-carboxylic acid], in assay [1], the “Delayed assay HBs ELISA % inhibition” value is recorded as “++ (50-75%)” and the EC50 lay in the range of 22 to 50 nM. Also, the half-inhibitory concentration (IC50) in assay [2] was in the range of 1 to 20 nM.
